The record followed here is ChEMBL document CHEMBL1177732, “Triterpene saponins from Clematis chinensis and their potential anti-inflammatory activity” (J Nat Prod, 2010).

The target in test [1] is T1, Prostaglandin G/H synthase 2 (Homo sapiens, UniProt P35354).
T1 sequence (P35354 whole entry): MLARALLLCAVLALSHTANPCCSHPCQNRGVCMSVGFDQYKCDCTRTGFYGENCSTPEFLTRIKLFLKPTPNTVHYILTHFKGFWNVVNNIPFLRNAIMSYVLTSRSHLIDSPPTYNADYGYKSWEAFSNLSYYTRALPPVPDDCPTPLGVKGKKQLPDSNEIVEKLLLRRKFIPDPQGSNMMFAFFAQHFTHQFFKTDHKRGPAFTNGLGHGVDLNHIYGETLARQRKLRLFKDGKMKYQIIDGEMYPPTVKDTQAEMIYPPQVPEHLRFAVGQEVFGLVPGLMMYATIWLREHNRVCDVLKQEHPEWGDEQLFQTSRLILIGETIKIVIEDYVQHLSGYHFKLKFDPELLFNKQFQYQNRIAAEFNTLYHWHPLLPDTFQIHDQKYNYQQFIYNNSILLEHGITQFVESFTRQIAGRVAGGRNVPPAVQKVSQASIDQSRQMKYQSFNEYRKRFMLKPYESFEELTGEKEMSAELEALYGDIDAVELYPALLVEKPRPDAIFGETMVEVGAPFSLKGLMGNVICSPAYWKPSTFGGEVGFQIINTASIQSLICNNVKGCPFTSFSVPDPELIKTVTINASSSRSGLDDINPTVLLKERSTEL
The test is described as follows: Inhibition of COX2 by microplate reader.

The target of test [2] is Prostaglandin G/H synthase 1 (Homo sapiens, UniProt P23219). Briefly: Inhibition of COX1 by microplate reader.
Sequence of Prostaglandin G/H synthase 1 (P23219 whole entry): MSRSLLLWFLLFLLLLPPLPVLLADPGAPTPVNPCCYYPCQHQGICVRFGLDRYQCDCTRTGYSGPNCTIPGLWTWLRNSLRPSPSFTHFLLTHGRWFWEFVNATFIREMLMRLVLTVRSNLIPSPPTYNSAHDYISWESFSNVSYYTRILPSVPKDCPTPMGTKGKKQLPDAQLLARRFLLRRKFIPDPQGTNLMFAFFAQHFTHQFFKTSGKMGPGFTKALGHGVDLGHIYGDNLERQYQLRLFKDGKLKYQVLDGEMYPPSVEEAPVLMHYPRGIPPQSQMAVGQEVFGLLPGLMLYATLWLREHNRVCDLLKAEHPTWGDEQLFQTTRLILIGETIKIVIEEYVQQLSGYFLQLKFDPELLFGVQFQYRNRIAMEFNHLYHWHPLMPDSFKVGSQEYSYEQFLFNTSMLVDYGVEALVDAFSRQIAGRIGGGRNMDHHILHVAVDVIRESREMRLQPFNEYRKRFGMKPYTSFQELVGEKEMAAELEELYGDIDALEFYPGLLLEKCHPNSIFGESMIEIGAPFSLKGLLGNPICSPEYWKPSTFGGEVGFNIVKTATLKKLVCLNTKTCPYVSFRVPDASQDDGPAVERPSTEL

SMILES strings stand for the structures. Where only a bound is given, the exact number is not on record here.

Take `COc1ccc(/C=C/C(=O)OC[C@H]2O[C@@H](O[C@H]3[C@H](O)[C@@H](O)[C@H](O[C@@H]4CO[C@@H](O[C@@H]5[C@@H](O)[C@H](C)O[C@@H](O[C@H]6[C@H](O[C@H]7CC[C@@]8(C)[C@@H](CC[C@]9(C)[C@@H]8CC=C8[C@@H]%10CC(C)(C)CC[C@]%10(C(=O)O[C@@H]%10O[C@H](CO[C@@H]%11O[C@H](CO)[C@@H](O[C@@H]%12O[C@@H](C)[C@H](O)[C@@H](O)[C@H]%12O)[C@H](O)[C@H]%11O)[C@@H](O)[C@H](O)[C@H]%10O)CC[C@]89C)[C@]7(C)CO)OC[C@@H](O)[C@@H]6O)[C@@H]5O)[C@H](O)[C@@H]4O)O[C@@H]3CO)[C@H](O)[C@@H](O)[C@@H]2O)cc1O` [CLEMATOCHINENOSIDE E]: the values for the IC50 in test [1] and in test [2] were 7.9 µM and 8.9 µM, respectively.

In the case of `C[C@@H]1O[C@@H](O[C@H]2[C@H](O)[C@@H](O)[C@H](OC[C@H]3O[C@@H](OC(=O)[C@]45CCC(C)(C)C[C@H]4C4=CC[C@@H]6[C@@]7(C)CC[C@H](O[C@@H]8OC[C@H](O)[C@H](O)[C@H]8O[C@@H]8O[C@@H](C)[C@H](O)[C@@H](O[C@@H]9OC[C@@H](O[C@@H]%10O[C@H](CO)[C@@H](O)[C@H](O)[C@H]%10O)[C@@H](O)[C@H]9O)[C@H]8O)C(C)(C)[C@@H]7CC[C@@]6(C)[C@]4(C)CC5)[C@H](O)[C@@H](O)[C@@H]3O)O[C@@H]2CO)[C@H](O)[C@H](O)[C@H]1O` [CLEMATICHINENOSIDE C], the IC50 in test [1] and in test [2] was > 50 µM each time.

`C[C@@H]1O[C@@H](O[C@H]2[C@H](O)[C@@H](O)[C@H](OC[C@H]3O[C@@H](OC(=O)[C@]45CCC(C)(C)C[C@H]4C4=CC[C@@H]6[C@@]7(C)CC[C@H](O[C@@H]8OC[C@H](O)[C@H](O)[C@H]8O[C@@H]8O[C@@H](C)[C@H](O)[C@@H](O[C@@H]9OC[C@@H](O)[C@@H](O)[C@H]9O)[C@H]8O)[C@@](C)(CO)[C@@H]7CC[C@@]6(C)[C@]4(C)CC5)[C@H](O)[C@@H](O)[C@@H]3O)O[C@@H]2CO)[C@H](O)[C@H](O)[C@H]1O` [HUZHANGOSIDE D]: the IC50 in test [1] and in test [2] was > 50 µM throughout.

Regarding `COc1ccc(/C=C/C(=O)O[C@H]2[C@H](O[C@H]3[C@H](O)[C@@H](O)[C@H](O[C@@H]4CO[C@@H](O[C@@H]5[C@@H](O)[C@H](C)O[C@@H](O[C@H]6[C@H](O[C@H]7CC[C@@]8(C)[C@@H](CC[C@]9(C)[C@@H]8CC=C8[C@@H]%10CC(C)(C)CC[C@]%10(C(=O)O[C@@H]%10O[C@H](CO[C@@H]%11O[C@H](CO)[C@@H](O[C@@H]%12O[C@@H](C)[C@H](O)[C@@H](O)[C@H]%12O)[C@H](O)[C@H]%11O)[C@@H](O)[C@H](O)[C@H]%10O)CC[C@]89C)[C@]7(C)CO)OC[C@H](O)[C@@H]6O)[C@@H]5O)[C@H](O)[C@@H]4O)O[C@@H]3CO)O[C@H](CO)[C@@H](O)[C@@H]2O[C@@H]2O[C@H](CO[C@@H]3O[C@@H](C)[C@H](O)[C@@H](O)[C@H]3O)[C@@H](O)[C@H](O)[C@H]2O)cc1O` [CLEMATERNOSIDE D], the IC50 in test [1] stood at 9 µM; in test [2], 8.8 µM.

As for `C[C@@H]1O[C@@H](O[C@H]2[C@H](O)[C@@H](O)[C@H](OC[C@H]3O[C@@H](OC(=O)[C@]45CCC(C)(C)C[C@H]4C4=CC[C@@H]6[C@@]7(C)CC[C@H](O)[C@@](C)(CO)[C@@H]7CC[C@@]6(C)[C@]4(C)CC5)[C@H](O)[C@@H](O)[C@@H]3O)O[C@@H]2CO)[C@H](O)[C@H](O)[C@H]1O` [KIZUTA CIRENSENOSIDE O SAPONIN K3], the IC50 in test [1] and in test [2] was > 50 µM each time.

As for `C[C@@H]1O[C@@H](O[C@H]2[C@H](O)[C@@H](O)[C@H](OC[C@H]3O[C@@H](OC(=O)[C@]45CCC(C)(C)C[C@H]4C4=CC[C@@H]6[C@@]7(C)CC[C@H](O[C@@H]8OC[C@H](O)[C@H](O)[C@H]8O[C@@H]8O[C@@H](C)[C@H](O)[C@@H](O[C@@H]9OC[C@@H](O[C@@H]%10O[C@H](CO)[C@@H](O[C@@H]%11O[C@H](CO)[C@@H](O)[C@H](O)[C@H]%11O)[C@H](O)[C@H]%10O)[C@@H](O)[C@H]9O)[C@H]8O)C(C)(C)[C@@H]7CC[C@@]6(C)[C@]4(C)CC5)[C@H](O)[C@@H](O)[C@@H]3O)O[C@@H]2CO)[C@H](O)[C@H](O)[C@H]1O` [CLEMATOMANDSHURICA SAPONIN C], the IC50 in test [1] and in test [2] was > 50 µM throughout.

For the compound `COc1ccc(/C=C/C(=O)O[C@H]2[C@H](O[C@H]3[C@H](O)[C@@H](O)[C@H](O[C@@H]4CO[C@@H](O[C@@H]5[C@@H](O)[C@H](C)O[C@@H](O[C@H]6[C@H](O[C@H]7CC[C@]8(C)[C@H]9CC=C%10[C@@H]%11CC(C)(C)CC[C@]%11(C(=O)O[C@@H]%11O[C@H](CO[C@@H]%12O[C@H](CO)[C@@H](O[C@@H]%13O[C@@H](C)[C@H](O)[C@@H](O)[C@H]%13O)[C@H](O)[C@H]%12O)[C@@H](O)[C@H](O)[C@H]%11O)CC[C@@]%10(C)[C@]9(C)CC[C@H]8C7(C)C)OC[C@H](O)[C@@H]6O)[C@@H]5O)[C@H](O)[C@@H]4O)O[C@@H]3CO)O[C@H](CO)[C@@H](O)[C@@H]2O)cc1O` [CLEMATERNOSIDE C], the values for the IC50 in test [1] and in test [2] were 8.8 µM and 7.6 µM, respectively.

`COc1ccc(/C=C/C(=O)O[C@H]2[C@H](O[C@H]3[C@H](O)[C@@H](O)[C@H](O[C@@H]4CO[C@@H](O[C@@H]5[C@@H](O)[C@H](C)O[C@@H](O[C@H]6[C@H](O[C@H]7CC[C@@]8(C)[C@@H](CC[C@]9(C)[C@@H]8CC=C8[C@@H]%10CC(C)(C)CC[C@]%10(C(=O)O[C@@H]%10O[C@H](CO[C@@H]%11O[C@H](CO)[C@@H](O[C@@H]%12O[C@@H](C)[C@H](O)[C@@H](O)[C@H]%12O)[C@H](O)[C@H]%11O)[C@@H](O)[C@H](O)[C@H]%10O)CC[C@]89C)[C@]7(C)CO)OC[C@@H](O)[C@@H]6O)[C@@H]5O)[C@H](O)[C@@H]4O)O[C@@H]3CO)O[C@H](CO)[C@@H](O)[C@@H]2O[C@@H]2O[C@H](CO[C@@H]3O[C@@H](C)[C@H](O)[C@@H](O)[C@H]3O)[C@@H](O[C@@H]3O[C@H](CO)[C@@H](O)[C@H](O)[C@H]3O)[C@H](O)[C@H]2O)cc1O` [CLEMATOCHINENOSIDE C]: the values for the IC50 in test [1] and in test [2] were 6.1 µM and 6.3 µM, respectively.

Consider `C[C@@H]1O[C@@H](O[C@H]2[C@H](O)[C@@H](O)[C@H](OC[C@H]3O[C@@H](OC(=O)[C@]45CCC(C)(C)C[C@H]4C4=CC[C@@H]6[C@@]7(C)CC[C@H](O[C@@H]8OC[C@H](O)[C@H](O)[C@H]8O[C@@H]8O[C@@H](C)[C@H](O)[C@@H](O[C@@H]9OC[C@@H](O[C@@H]%10O[C@H](CO)[C@@H](O[C@@H]%11O[C@H](CO)[C@@H](O)[C@H](O)[C@H]%11O)[C@H](O)[C@H]%10O)[C@@H](O)[C@H]9O)[C@H]8O)[C@@](C)(CO)[C@@H]7CC[C@@]6(C)[C@]4(C)CC5)[C@H](O)[C@@H](O)[C@@H]3O)O[C@@H]2CO)[C@H](O)[C@H](O)[C@H]1O`, for which the IC50 in test [1] and in test [2] was > 50 µM throughout.

Consider `COc1ccc(/C=C/C(=O)O[C@@H]2[C@@H](O)[C@H](O[C@H]3[C@H](O)[C@@H](O)[C@H](O[C@@H]4CO[C@@H](O[C@@H]5[C@@H](O)[C@H](C)O[C@@H](O[C@H]6[C@H](O[C@H]7CC[C@]8(C)[C@H]9CC=C%10[C@@H]%11CC(C)(C)CC[C@]%11(C(=O)O[C@@H]%11O[C@H](CO[C@@H]%12O[C@H](CO)[C@@H](O[C@@H]%13O[C@@H](C)[C@H](O)[C@@H](O)[C@H]%13O)[C@H](O)[C@H]%12O)[C@@H](O)[C@H](O)[C@H]%11O)CC[C@@]%10(C)[C@]9(C)CC[C@H]8C7(C)C)OC[C@H](O)[C@@H]6O)[C@@H]5O)[C@H](O)[C@@H]4O)O[C@@H]3CO)O[C@H](CO)[C@H]2O)cc1O` [CLEMATERNOSIDE B], for which the IC50 worked out at 7.6 µM in test [1] and 8 µM in test [2].

As usually defined, the IC50 is the concentration at which inhibition is half-maximal. Read a low IC50 as greater potency.
